Test system: hypertriglyceridemic patients with cardiovascular disease or at high risk for cardiovascular disease
Assay: REDUCE-IT: treatment-emergent adverse events and serious adverse events (safety population)
[1] = BMI ≥25 to <30 kg/m^2 (N = 1427)
[2] = No Ezetimibe at baseline (N = 3827)
[3] = Region Eastern Europe (N = 1053)

Protocol: Specification of Variables and Procedures: Safety assessments included adverse events, clinical laboratory measurements (chemistry, hematology), 12-lead ECGs, vital signs (systolic and diastolic blood pressure, heart rate, respiratory rate, and body temperature), weight, waist circumference, and physical examinations as per Study Procedures in Table 1. […] All laboratory test results were evaluated by the investigator as to their clinical significance. Any observations at physical examinations or laboratory values considered by the investigator to be clinically significant were considered an adverse event.
An adverse event can therefore be any unfavorable and/or unintended sign (including an abnormal laboratory finding), symptom, or disease temporally associated with the use of an investigational medication product, whether or not related to the investigational medication product. All adverse events, including observed or volunteered problems, complaints, or symptoms, were recorded on the appropriate CRF. Each adverse event was evaluated for duration, intensity, and causal relationship with the study medication or other factors.
Adverse events, which included clinical laboratory test variables, were monitored from the time of informed consent until study participation was complete. Patients were instructed to report any adverse event that they experienced to the investigator. Beginning with Visit 2, investigators assessed for adverse events at each visit and recorded the event on the appropriate adverse event CRF.
Causality Assessment: The relationship of an adverse event to the administration of the study drug was assessed according to the following definitions: • No (unrelated, not related, no relation)—The time course between the administration of study drug and the occurrence or worsening of the adverse event rules out a causal relationship and another cause (concomitant drugs, therapies, complications, etc.) is suspected. • Yes (related, probably related, possibly related)—The time course between the administration of study drug and the occurrence or worsening of the adverse event is consistent with a causal relationship and no other cause (concomitant drugs, therapies, complications, etc.) can be identified.
Serious Adverse Events: A serious adverse event (SAE) is defined as an adverse event that meets any of the following criteria: • Results in death; • Is life-threatening—The term “life-threatening” in the definition of “serious” refers to an event in which the patient was at risk of death at the time of the event. […] Important medical events that may not result in death, be life threatening, or require hospitalization were considered an SAE when, based upon appropriate medical judgment, they may have jeopardized the patient and may have required medical or surgical intervention to prevent one of the outcomes listed above.
Analysis of Safety: All analyses of safety were conducted on the safety population, which was defined as all randomized patients. The safety assessment was based on the frequency of adverse events, physical exams, vital signs and safety laboratory tests. AEs with new onset during the study between the initiation of study drug and 30 days after the last dose of study drug for each patient was considered treatment-emergent (TEAEs). This included any AE with onset prior to initiation of study drug and increased severity after the treatment initiation.
This included overall incidence rates (regardless of severity and relationship to study drug), and incidence rates for moderate or severe adverse events. A summary of SAEs and adverse events leading to early discontinuation (for ≥30 days) were presented through data listings. Patients who restarted study drug were included in the summary of AEs leading to discontinuation.

Structure (SMILES): CC/C=C\C/C=C\C/C=C\C/C=C\C/C=C\CCCC(=O)OCC [AMR101, eicosapentaenoic acid ethyl ester]
- Patients with at least 1 TEAE, % (Age <65 years (N = 2232)): (77.3) %
- TEAE: GI disorders, % (Age <65 years (N = 2232)): (27.9) %
- TEAE: General disorders and administration site condition, % (Age <65 years (N = 2232)): (21.6) %
- TEAE: Musculoskeletal and connective tissue disorders, % (Age <65 years (N = 2232)): (31.4) %
- TEAE: Nervous system disorders, % (Age <65 years (N = 2232)): (20.3) %
- TEAE: Respiratory, thoracic, and mediastinal disorders, % (Age <65 years (N = 2232)): (18.9) %
- Patients with at least 1 TEAE, % (Age ≥65 years (N = 1857)): (87.1) %
- TEAE: GI disorders, % (Age ≥65 years (N = 1857)): (39.2) %
- TEAE: General disorders and administration site condition, % (Age ≥65 years (N = 1857)): (29.5) %
- TEAE: Musculoskeletal and connective tissue disorders, % (Age ≥65 years (N = 1857)): (41.2) %
- TEAE: Nervous system disorders, % (Age ≥65 years (N = 1857)): (29.7) %
- TEAE: Respiratory, thoracic, and mediastinal disorders, % (Age ≥65 years (N = 1857)): (30.5) %
- TEAEs, overall incidence (Asia Pacific region subgroup): 76.9%
- TEAE class nervous system disorders, patients (Asian Pacific region subgroup): 20.8%
- Patients with at least 1 TEAE, % (BMI <25 kg/m^2 (N = 320)): (80.6) %
- TEAE: GI disorders, % (BMI <25 kg/m^2 (N = 320)): (33.8) %
- TEAE: General disorders and administration site condition, % (BMI <25 kg/m^2 (N = 320)): (23.1) %
- TEAE: Musculoskeletal and connective tissue disorders, % (BMI <25 kg/m^2 (N = 320)): (26.9) %
- TEAE: Nervous system disorders, % (BMI <25 kg/m^2 (N = 320)): (22.8) %
- TEAE: Respiratory, thoracic, and mediastinal disorders, % (BMI <25 kg/m^2 (N = 320)): (21.3) %
- Patients with at least 1 TEAE, % [1]: (81.5) %
- TEAE: GI disorders, % [1]: (30.8) %
- TEAE: General disorders and administration site condition, % [1]: (24.0) %
- TEAE: Musculoskeletal and connective tissue disorders, % [1]: (33.4) %
- TEAE: Nervous system disorders, % [1]: (23.6) %
- TEAE: Respiratory, thoracic, and mediastinal disorders, % [1]: (22.7) %
- TEAE class GI disorders, patients (BMI ≥25 to <30 kg/m^2 subgroup): 30.8%
- Patients with at least 1 TEAE, % (BMI ≥30 kg/m^2 (N = 2331)): (82.3) %
- TEAE: GI disorders, % (BMI ≥30 kg/m^2 (N = 2331)): (34.3) %
- TEAE: General disorders and administration site condition, % (BMI ≥30 kg/m^2 (N = 2331)): (26.3) %
- TEAE: Musculoskeletal and connective tissue disorders, % (BMI ≥30 kg/m^2 (N = 2331)): (38.7) %
- TEAE: Nervous system disorders, % (BMI ≥30 kg/m^2 (N = 2331)): (25.5) %
- TEAE: Respiratory, thoracic, and mediastinal disorders, % (BMI ≥30 kg/m^2 (N = 2331)): (25.6) %
- Patients with at least 1 TEAE, % (Baseline Ezetimibe (N = 262)): (92.0) %
- TEAE: GI disorders, % (Baseline Ezetimibe (N = 262)): (37.4) %
- TEAE: General disorders and administration site condition, % (Baseline Ezetimibe (N = 262)): (26.3) %
- TEAE: Musculoskeletal and connective tissue disorders, % (Baseline Ezetimibe (N = 262)): (41.2) %
- TEAE: Nervous system disorders, % (Baseline Ezetimibe (N = 262)): (23.7) %
- TEAE: Respiratory, thoracic, and mediastinal disorders, % (Baseline Ezetimibe (N = 262)): (27.5) %
- Patients with at least 1 TEAE, % (CV Risk Category 1 (N = 2892)): (81.6) %
- TEAE: GI disorders, % (CV Risk Category 1 (N = 2892)): (31.3) %
- TEAE: General disorders and administration site condition, % (CV Risk Category 1 (N = 2892)): (25.3) %
- TEAE: Musculoskeletal and connective tissue disorders, % (CV Risk Category 1 (N = 2892)): (33.6) %
- TEAE: Nervous system disorders, % (CV Risk Category 1 (N = 2892)): (23.4) %
- TEAE: Respiratory, thoracic, and mediastinal disorders, % (CV Risk Category 1 (N = 2892)): (23.4) %
- Patients with at least 1 TEAE, % (CV Risk Category 2 (N = 1197)): (82.1) %
- TEAE: GI disorders, % (CV Risk Category 2 (N = 1197)): (37.2) %
- TEAE: General disorders and administration site condition, % (CV Risk Category 2 (N = 1197)): (24.9) %
- TEAE: Musculoskeletal and connective tissue disorders, % (CV Risk Category 2 (N = 1197)): (41.3) %
- TEAE: Nervous system disorders, % (CV Risk Category 2 (N = 1197)): (27.4) %
- TEAE: Respiratory, thoracic, and mediastinal disorders, % (CV Risk Category 2 (N = 1197)): (26.1) %
- Patients with at least 1 TEAE, % (Female (N = 1162)): (79.9) %
- TEAE: GI disorders, % (Female (N = 1162)): (38.3) %
- TEAE: General disorders and administration site condition, % (Female (N = 1162)): (25.5) %
- TEAE: Musculoskeletal and connective tissue disorders, % (Female (N = 1162)): (37.6) %
- TEAE: Nervous system disorders, % (Female (N = 1162)): (27.6) %
- TEAE: Respiratory, thoracic, and mediastinal disorders, % (Female (N = 1162)): (23.4) %
- Patients with at least 1 TEAE, % (Male (N = 2927)): (82.5) %
- TEAE: GI disorders, % (Male (N = 2927)): (30.9) %
- TEAE: General disorders and administration site condition, % (Male (N = 2927)): (25.1) %
- TEAE: Musculoskeletal and connective tissue disorders, % (Male (N = 2927)): (35.2) %
- TEAE: Nervous system disorders, % (Male (N = 2927)): (23.3) %
- TEAE: Respiratory, thoracic, and mediastinal disorders, % (Male (N = 2927)): (24.5) %
- Patients with at least 1 TEAE, % [2]: (81.1) %
- TEAE: GI disorders, % [2]: (32.7) %
- TEAE: General disorders and administration site condition, % [2]: (25.1) %
- TEAE: Musculoskeletal and connective tissue disorders, % [2]: (35.5) %
- TEAE: Nervous system disorders, % [2]: (24.6) %
- TEAE: Respiratory, thoracic, and mediastinal disorders, % [2]: (24.0) %
- Patients with at least 1 TEAE, % (Race Non-white (N = 398)): (81.4) %
- TEAE: GI disorders, % (Race Non-white (N = 398)): (28.9) %
- TEAE: General disorders and administration site condition, % (Race Non-white (N = 398)): (25.4) %
- TEAE: Musculoskeletal and connective tissue disorders, % (Race Non-white (N = 398)): (30.9) %
- TEAE: Nervous system disorders, % (Race Non-white (N = 398)): (23.4) %
- TEAE: Respiratory, thoracic, and mediastinal disorders, % (Race Non-white (N = 398)): (23.9) %
- Patients with at least 1 TEAE, % (Race White (N = 3691)): (81.8) %
- TEAE: GI disorders, % (Race White (N = 3691)): (33.5) %
- TEAE: General disorders and administration site condition, % (Race White (N = 3691)): (25.2) %
- TEAE: Musculoskeletal and connective tissue disorders, % (Race White (N = 3691)): (36.4) %
- TEAE: Nervous system disorders, % (Race White (N = 3691)): (24.7) %
- TEAE: Respiratory, thoracic, and mediastinal disorders, % (Race White (N = 3691)): (24.2) %
- Patients with at least 1 TEAE, % (Region Asia Pacific (N = 130)): (76.9) %
- TEAE: GI disorders, % (Region Asia Pacific (N = 130)): (18.5) %
- TEAE: General disorders and administration site condition, % (Region Asia Pacific (N = 130)): (22.3) %
- TEAE: Musculoskeletal and connective tissue disorders, % (Region Asia Pacific (N = 130)): (17.7) %
- TEAE: Nervous system disorders, % (Region Asia Pacific (N = 130)): (20.8) %
- TEAE: Respiratory, thoracic, and mediastinal disorders, % (Region Asia Pacific (N = 130)): (17.7) %
- Patients with at least 1 TEAE, % [3]: (58.1) %
- TEAE: GI disorders, % [3]: (11.9) %
- Patients with at least 1 TEAE, % (Region Westernized (N = 2906)): (90.5) %
- TEAE: GI disorders, % (Region Westernized (N = 2906)): (41.3) %
- TEAE: General disorders and administration site condition, % (Region Westernized (N = 2906)): (32.2) %
- TEAE: Musculoskeletal and connective tissue disorders, % (Region Westernized (N = 2906)): (46.4) %
- TEAE: Nervous system disorders, % (Region Westernized (N = 2906)): (30.0) %
